Laboratory results reported in ChEMBL document CHEMBL1201862, “PubChem BioAssay data set” (2004).
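How tested: cells in 96-well plates exposed to compound for 48 hours at five concentrations. At the GI50, growth is halved.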 The source made the active and inactive calls. Cut-off read from the data, not from the text of the source: active = GI50 up to about 1.1 µM and inactive = higher.

Experiments:
Assay in all cases: DTP human tumour cell line panel, 48 h
SK-MEL-2 = tested on: SK-MEL-2
MDA-MB-435 = tested on: MDA-MB-435
OVCAR-5 = tested on: OVCAR-5
NCI-H460 = tested on: NCI-H460
OVCAR-4 = tested on: OVCAR-4
M14 = tested on: M14
A549 = tested on: A549
MDA-MB-231 = tested on: MDA-MB-231
DU-145 = tested on: DU-145
SK-MEL-28 = tested on: SK-MEL-28
CCRF-CEM = tested on: CCRF-CEM
NCI-H23 = tested on: NCI-H23
BT-549 = tested on: BT-549
A498 = tested on: A498
SN12C = tested on: SN12C
MCF7 = tested on: MCF7
IGROV-1 = tested on: IGROV-1
UACC-257 = tested on: UACC-257
MOLT-4 = tested on: MOLT-4
HL-60 = tested on: HL-60

SMILES | GI50 (SK-MEL-2) | GI50 (MDA-MB-435) | GI50 (OVCAR-5) | GI50 (NCI-H460) | GI50 (OVCAR-4) | GI50 (M14) | GI50 (A549) | GI50 (MDA-MB-231) | GI50 (DU-145) | GI50 (SK-MEL-28) | GI50 (CCRF-CEM) | GI50 (NCI-H23) | GI50 (BT-549) | GI50 (A498) | GI50 (SN12C) | GI50 (MCF7) | GI50 (IGROV-1) | GI50 (UACC-257) | GI50 (MOLT-4) | GI50 (HL-60)
CC1=NOC(=O)/C1=C/c1ccc2c(c1)OCO2 | 19.6 µM (inactive) | 23.4 µM (inactive) | 37.1 µM (inactive) | 35.1 µM (inactive) | 63.1 µM (inactive) | 35.3 µM (inactive) | 61.8 µM (inactive) | 24.5 µM (inactive) | 25.1 µM (inactive) | 30.8 µM (inactive) | 20.7 µM (inactive) | 37.3 µM (inactive) | 24 µM (inactive) | 26.3 µM (inactive) | 25.4 µM (inactive) | 30.2 µM (inactive) | 25.2 µM (inactive) | 73.5 µM (inactive) | – | –
COc1ccc2c(c1)CCc1c-2n(CCN(C)C)c2ccc(OC)cc12 | 18.5 µM (inactive) | 6.32 µM (inactive) | 16.8 µM (inactive) | 30.4 µM (inactive) | 25.4 µM (inactive) | 3.6 µM (inactive) | 15 µM (inactive) | 11.2 µM (inactive) | 33.9 µM (inactive) | 9.48 µM (inactive) | 2.38 µM (inactive) | 16.3 µM (inactive) | 29.1 µM (inactive) | 17.6 µM (inactive) | 12.5 µM (inactive) | 16.4 µM (inactive) | 18.7 µM (inactive) | 33 µM (inactive) | 10.2 µM (inactive) | –
Cc1cc(=O)n2nc(CN3CCCCC3)sc2n1 | > 100 µM (inactive) | > 100 µM (inactive) | > 100 µM (inactive) | > 100 µM (inactive) | > 100 µM (inactive) | > 100 µM (inactive) | > 100 µM (inactive) | > 100 µM (inactive) | > 100 µM (inactive) | > 100 µM (inactive) | > 100 µM (inactive) | > 100 µM (inactive) | > 100 µM (inactive) | – | > 100 µM (inactive) | > 100 µM (inactive) | > 100 µM (inactive) | > 100 µM (inactive) | > 100 µM (inactive) | > 100 µM (inactive)
O=C(O)c1ccccc1C(=O)OCC1CCCN2CCCCC12 (stereo not drawn) | > 100 µM (inactive) | > 100 µM (inactive) | > 100 µM (inactive) | > 100 µM (inactive) | > 100 µM (inactive) | > 100 µM (inactive) | > 100 µM (inactive) | > 100 µM (inactive) | > 100 µM (inactive) | > 100 µM (inactive) | > 100 µM (inactive) | > 100 µM (inactive) | > 100 µM (inactive) | > 100 µM (inactive) | > 100 µM (inactive) | > 100 µM (inactive) | > 100 µM (inactive) | > 100 µM (inactive) | > 100 µM (inactive) | –
Cc1ccc(C(=O)N(C(C)C)C(C)C)cc1/N=N/N(C)C | > 100 µM (inactive) | > 100 µM (inactive) | > 100 µM (inactive) | > 100 µM (inactive) | > 100 µM (inactive) | > 100 µM (inactive) | > 100 µM (inactive) | > 100 µM (inactive) | > 100 µM (inactive) | 41.1 µM (inactive) | > 10 µM (inactive) | 41 µM (inactive) | > 100 µM (inactive) | – | > 100 µM (inactive) | > 100 µM (inactive) | > 100 µM (inactive) | 57.4 µM (inactive) | 45.3 µM (inactive) | 29.7 µM (inactive)
CC(C)(C)OC(=O)N1CCC23CCCC2C(=O)CC=C13 (stereo not drawn) | > 100 µM (inactive) | > 100 µM (inactive) | > 100 µM (inactive) | > 100 µM (inactive) | > 100 µM (inactive) | > 100 µM (inactive) | > 100 µM (inactive) | > 100 µM (inactive) | > 100 µM (inactive) | > 100 µM (inactive) | 37.9 µM (inactive) | > 100 µM (inactive) | > 100 µM (inactive) | – | > 100 µM (inactive) | > 100 µM (inactive) | > 100 µM (inactive) | 11.8 µM (inactive) | > 100 µM (inactive) | > 100 µM (inactive)
CCCC[S+]([O-])CCC(N)C(=O)O (stereo not drawn) | – | – | > 100 µM (inactive) | > 100 µM (inactive) | > 100 µM (inactive) | > 100 µM (inactive) | > 100 µM (inactive) | > 100 µM (inactive) | > 100 µM (inactive) | > 100 µM (inactive) | > 100 µM (inactive) | > 100 µM (inactive) | > 100 µM (inactive) | > 100 µM (inactive) | > 100 µM (inactive) | > 100 µM (inactive) | > 100 µM (inactive) | > 100 µM (inactive) | > 100 µM (inactive) | > 100 µM (inactive)
CCOC(=O)/C=C/C1OC(C)(C)OC1/C=C/C(=O)OCC (stereo not drawn) | 81.5 µM (inactive) | 29 µM (inactive) | 29.9 µM (inactive) | 21.2 µM (inactive) | 32.4 µM (inactive) | 37.7 µM (inactive) | 40.9 µM (inactive) | 39.9 µM (inactive) | 34.8 µM (inactive) | 28.4 µM (inactive) | 17.2 µM (inactive) | 40.6 µM (inactive) | 54.8 µM (inactive) | 42 µM (inactive) | 22.6 µM (inactive) | 30.8 µM (inactive) | 31.3 µM (inactive) | 48.4 µM (inactive) | 28.4 µM (inactive) | –
C=O.NNCCc1n[nH]c(=O)n1N | – | > 100 µM (inactive) | > 100 µM (inactive) | > 100 µM (inactive) | > 100 µM (inactive) | > 100 µM (inactive) | > 100 µM (inactive) | > 100 µM (inactive) | > 100 µM (inactive) | > 100 µM (inactive) | > 100 µM (inactive) | > 100 µM (inactive) | > 100 µM (inactive) | – | > 100 µM (inactive) | > 100 µM (inactive) | > 100 µM (inactive) | > 100 µM (inactive) | > 100 µM (inactive) | > 100 µM (inactive)
C=CC/N=C(\S)Nc1sc2c(c1C(=O)OCC)CC(C)CC2 (stereo not drawn) | 21.2 µM (inactive) | 32 µM (inactive) | 30.3 µM (inactive) | 20.8 µM (inactive) | 35.2 µM (inactive) | 24 µM (inactive) | 24.8 µM (inactive) | 24.8 µM (inactive) | 30.6 µM (inactive) | 33.1 µM (inactive) | – | 32.7 µM (inactive) | 35.6 µM (inactive) | – | 29.9 µM (inactive) | 20.2 µM (inactive) | 33.3 µM (inactive) | 20.8 µM (inactive) | 28.8 µM (inactive) | 0.849 µM (active)
C/C(=N/NC(=S)N(C)C)c1ccccc1O | 11.9 µM (inactive) | 21.6 µM (inactive) | 17.4 µM (inactive) | 2.26 µM (inactive) | 11.3 µM (inactive) | 7.35 µM (inactive) | 7.87 µM (inactive) | 35.8 µM (inactive) | 18.9 µM (inactive) | 26.4 µM (inactive) | 2.88 µM (inactive) | 20.7 µM (inactive) | 10.4 µM (inactive) | 36.1 µM (inactive) | 14.4 µM (inactive) | – | 5.98 µM (inactive) | 17.1 µM (inactive) | 20.5 µM (inactive) | > 22.5 µM (inactive)
CC(=O)c1ccc2c(c1)CC1(C2)Cc2cc3c(c(C(=O)O)c2C1)CCC3 (stereo not drawn) | – | > 100 µM (inactive) | > 100 µM (inactive) | 64.6 µM (inactive) | 78.7 µM (inactive) | – | 37.9 µM (inactive) | > 100 µM (inactive) | > 100 µM (inactive) | > 100 µM (inactive) | 81.8 µM (inactive) | > 100 µM (inactive) | > 100 µM (inactive) | > 100 µM (inactive) | > 100 µM (inactive) | > 100 µM (inactive) | > 100 µM (inactive) | > 100 µM (inactive) | > 100 µM (inactive) | > 100 µM (inactive)
COc1ccccc1/C=C1/Sc2scc(CC(=O)Nc3ccccc3)[n+]2C1=O | 19.1 µM (inactive) | 28.4 µM (inactive) | 47 µM (inactive) | 29.5 µM (inactive) | 21 µM (inactive) | 28.4 µM (inactive) | 31.5 µM (inactive) | 23 µM (inactive) | 27.7 µM (inactive) | 22.4 µM (inactive) | 17.7 µM (inactive) | 28.6 µM (inactive) | 15.3 µM (inactive) | – | 31.3 µM (inactive) | 31.4 µM (inactive) | 38 µM (inactive) | 25.1 µM (inactive) | 17.2 µM (inactive) | 15 µM (inactive)
CCCCOC(=O)C(=O)C(CC(C(=O)Cc1ccccc1)c1ccccc1)C(=O)C=C(C)C (stereo not drawn) | > 100 µM (inactive) | > 100 µM (inactive) | > 100 µM (inactive) | > 100 µM (inactive) | > 100 µM (inactive) | > 100 µM (inactive) | > 100 µM (inactive) | > 100 µM (inactive) | > 100 µM (inactive) | > 100 µM (inactive) | 76.6 µM (inactive) | > 100 µM (inactive) | > 100 µM (inactive) | – | > 100 µM (inactive) | > 100 µM (inactive) | > 100 µM (inactive) | > 100 µM (inactive) | 83.9 µM (inactive) | 50.1 µM (inactive)
CC1(C)CC2(C)CC1CC2O (stereo not drawn) | – | > 100 µM (inactive) | > 100 µM (inactive) | – | > 100 µM (inactive) | > 100 µM (inactive) | > 100 µM (inactive) | > 100 µM (inactive) | > 100 µM (inactive) | > 100 µM (inactive) | > 100 µM (inactive) | > 100 µM (inactive) | > 100 µM (inactive) | – | > 100 µM (inactive) | > 100 µM (inactive) | > 100 µM (inactive) | > 100 µM (inactive) | > 100 µM (inactive) | > 100 µM (inactive)
